Test results from article PMC6261308 (Advanced functional materials, 2018).

Assay: Acute toxicity: hemograms and serum biochemistry
Type: in vivo, Balb/c mice
Settings: 2.5 mg kg^−1 of drug content three times a week

COc1cccc2c1C(=O)c1c(O)c3c(c(O)c1C2=O)C[C@@](O)(/C(CO)=N/NC(=O)CCCCCN1C(=O)C=CC1=O)C[C@@H]3O[C@H]1C[C@H](N)[C@H](O)[C@H](C)O1 [aldox, aldoxorubicin]
serum creatine kinase (CK) level: increased CK level
